Assay results taken from patent publication US6376617B1, “Bioactive derivatives of camptothecin” (Pharmacia & Upjohn S.p.A., priority 1997, dated 2002).

Test system: human colon carcinoma (HT29)
Test: Antitumor activity on human colon carcinoma (HT29) transplanted in nude mice
Details: HT29 sc in nude mice; for TI% 46th day (tumor inhibition %): day 46
Description: Tumor fragment were implanted sc. Treatment started when tumor was palpable. TI % (tumor inhibition %) was calculated at day 46.

[1] = iv q4dx6, dose 20 mg/kg, total dose 120 mg/kg

| Molecule | Tox [1] | TI% 46th day (tumor inhibition %) [1] [%] | TI% 46th day (tumor inhibition %) (iv q4dx8, dose 5 mg/kg, total dose 40 mg/kg) [%] | TI% 46th day (tumor inhibition %) (iv q4dx8, dose 10 mg/kg, total dose 80 mg/kg) [%] | TI% 46th day (tumor inhibition %) (iv q4dx8, dose 20 mg/kg, total dose 160 mg/kg) [%] |
| --- | --- | --- | --- | --- | --- |
| CCc1c2c(nc3ccc(O)cc13)-c1cc3c(c(=O)n1C2)COC(=O)[C@]3(O)CC [1a, 7-ethyl-10-hydroxycamptothecin, reference compound] | 1/7 | 97 | – | – | – |
| copolymer of N-(2-hydroxypropyl)methacrylamide, {7-ethyl-10-hydroxy-20-O-[N-methacryloyl-glycyl-L-phenylalanyl-L-leucyl-glycyl]camptothecin} and N-(2-hydroxypropyl)methacryloylglycinamide [A1] | – | – | 77 | 91 | 98 |
